Experiments:
human recombinant HDAC6 = target: T1, human recombinant HDAC6 (Homo sapiens, UniProt Q9UBN7); type: biochemical; details: for LE, HDAC6 (ligand efficiency): from IC50 in place of Kd, T = 310 K; for HDAC6 inhibition: concentrations up to 25 μM, data not shown; for SF 1/6, selectivity factor for HDAC6 over HDAC1: IC50(HDAC1)/IC50(HDAC6)
T1 sequence (Q9UBN7 1-1215): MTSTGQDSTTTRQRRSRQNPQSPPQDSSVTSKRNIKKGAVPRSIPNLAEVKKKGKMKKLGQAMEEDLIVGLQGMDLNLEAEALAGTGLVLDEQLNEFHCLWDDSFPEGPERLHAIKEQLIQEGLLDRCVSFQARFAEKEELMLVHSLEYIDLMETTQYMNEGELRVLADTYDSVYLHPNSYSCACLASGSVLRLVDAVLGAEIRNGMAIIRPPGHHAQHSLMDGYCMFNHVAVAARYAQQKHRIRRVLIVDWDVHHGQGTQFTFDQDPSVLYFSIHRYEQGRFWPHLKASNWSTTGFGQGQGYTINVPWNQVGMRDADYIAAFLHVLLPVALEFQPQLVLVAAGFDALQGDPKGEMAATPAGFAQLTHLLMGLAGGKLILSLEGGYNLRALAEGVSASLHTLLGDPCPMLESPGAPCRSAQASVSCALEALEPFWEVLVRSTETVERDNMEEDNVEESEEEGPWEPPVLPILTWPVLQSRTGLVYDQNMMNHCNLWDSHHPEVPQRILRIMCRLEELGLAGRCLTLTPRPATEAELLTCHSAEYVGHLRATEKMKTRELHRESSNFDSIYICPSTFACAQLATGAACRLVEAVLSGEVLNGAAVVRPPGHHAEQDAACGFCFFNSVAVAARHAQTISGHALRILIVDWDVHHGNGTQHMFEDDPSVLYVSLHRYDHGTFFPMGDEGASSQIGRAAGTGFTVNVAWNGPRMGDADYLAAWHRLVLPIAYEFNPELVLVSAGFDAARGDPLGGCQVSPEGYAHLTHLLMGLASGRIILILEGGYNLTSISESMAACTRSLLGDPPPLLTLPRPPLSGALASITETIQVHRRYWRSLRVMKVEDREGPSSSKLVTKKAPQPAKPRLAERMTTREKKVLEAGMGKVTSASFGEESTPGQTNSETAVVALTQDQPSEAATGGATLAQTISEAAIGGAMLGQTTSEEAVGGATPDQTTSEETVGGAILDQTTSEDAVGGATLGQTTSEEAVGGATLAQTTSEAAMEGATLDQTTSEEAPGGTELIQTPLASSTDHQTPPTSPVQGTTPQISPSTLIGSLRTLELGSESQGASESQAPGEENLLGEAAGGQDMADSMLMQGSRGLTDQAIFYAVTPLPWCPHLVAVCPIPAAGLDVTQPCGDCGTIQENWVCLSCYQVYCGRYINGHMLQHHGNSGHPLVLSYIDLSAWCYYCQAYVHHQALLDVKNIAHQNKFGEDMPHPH

human recombinant HDAC1 = human recombinant HDAC1 (Homo sapiens, UniProt Q13547); experiment: In vitro HDAC1 inhibition, fluorogenic ZMAL assay; type: biochemical
Chain of human recombinant HDAC1 (Q13547 whole entry): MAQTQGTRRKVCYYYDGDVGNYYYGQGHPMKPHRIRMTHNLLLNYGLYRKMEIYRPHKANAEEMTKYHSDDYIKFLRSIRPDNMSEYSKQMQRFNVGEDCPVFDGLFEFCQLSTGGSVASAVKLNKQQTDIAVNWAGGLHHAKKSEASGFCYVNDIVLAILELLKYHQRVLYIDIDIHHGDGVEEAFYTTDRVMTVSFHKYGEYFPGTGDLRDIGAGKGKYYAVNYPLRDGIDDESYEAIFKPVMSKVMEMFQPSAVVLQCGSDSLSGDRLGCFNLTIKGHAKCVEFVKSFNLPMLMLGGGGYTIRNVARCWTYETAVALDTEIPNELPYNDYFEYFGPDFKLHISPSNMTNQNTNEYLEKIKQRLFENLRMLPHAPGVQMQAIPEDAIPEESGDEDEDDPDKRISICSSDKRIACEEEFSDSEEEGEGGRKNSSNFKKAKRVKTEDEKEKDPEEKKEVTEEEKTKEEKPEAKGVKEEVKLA

hHDAC6 = details: cited from earlier work
[1] = Metabolic stability in human liver microsomes; type: in vitro ADME; details: for half-life at 2 μM: human, liver microsomes
HepaRG cells = experiment: CellTiter-Blue cell viability assay, HepaRG; details: 24 h of treatment, highest tested concentration (100 μM)
MDA-MB-231 cells = details: MDA-MB-231, 10 and 100 μM, 72 h
T24 cells = details: T24, 10 and 100 μM, 72 h
HUH7 cells = details: HUH7, 10 and 100 μM, 72 h

Row | SMILES | LE, HDAC6 (ligand efficiency) (human recombinant HDAC6) | IC50 (human recombinant HDAC1) | also measured
1 | O=C(NO)c1ccc(CN2c3ccccc3[S+]([O-])c3ccccc32)cc1 [Compound 7e, N-Hydroxy-4-[(5-oxido-10H-phenothiazin-10-yl)methyl]benzamide] | 0.39 (kcal/mol)/non-H-Atom | – | –
2 | O=C(NO)c1ccc(CN2c3ccccc3Sc3ccc(C(F)(F)F)cc32)cc1 [Compound 7d, N-Hydroxy-4-{[2-(trifluoromethyl)-10H-phenothiazin-10-yl]methyl}benzamide] | 0.37 (kcal/mol)/non-H-Atom | – | –
3 | O=C(O)c1ccc(CN2c3ccncc3Sc3ncccc32)cc1 [Compound 5n, 4-[(5H-Dipyrido[2,3-b:4’,3’-e][1,4]thiazin-5-yl)methyl]benzoic acid] | – | – | activity on HDAC6 (in words) (human recombinant HDAC6): inactive; HDAC6 inhibition (human recombinant HDAC6): did not show noteworthy HDAC6 inhibition
4 | O=C(NO)c1ccc(CN2c3ccccc3Sc3cccc(Cl)c32)cc1 [Compound 7c, 4-[(1-Chloro-10H-phenothiazin-10-yl)methyl]-N-hydroxybenzamide] | 0.43 (kcal/mol)/non-H-Atom | – | –
5 | O=C(NO)c1ccc(CN2c3ccccc3Sc3cc(Cl)nnc32)cc1 [Compound 7q, 4-[(3-Chloro-10H-benzo[b]pyridazino[3,4-e][1,4]thiazin-10-yl)methyl]-N-hydroxybenzamide] | 0.42 (kcal/mol)/non-H-Atom | 1.08 ± 0.04 µM | –
6 | O=C(NO)c1ccc(N2c3ccccc3Sc3ccccc32)cc1 [Compound 18, N-Hydroxy-4-(10H-phenothiazin-10-yl)benzamide] | 0.33 (kcal/mol)/non-H-Atom | 5.87 ± 0.71 µM | SF 1/6, selectivity factor for HDAC6 over HDAC1 (human recombinant HDAC6): 2
7 | O=C(NO)c1ccc(CN2c3ccccc3Sc3nccnc32)cc1 [Compound 7k, 4-[(10H-Benzo[b]pyrazino[2,3-e][1,4]thiazin-10-yl)methyl]-N-hydroxybenzamide] | 0.44 (kcal/mol)/non-H-Atom | 3.84 ± 0.13 µM | SF 1/6, selectivity factor for HDAC6 over HDAC1 (human recombinant HDAC6): 226
8 | CON(C)C(=O)c1ccc(CN2c3ccccc3Sc3ccccc32)cc1 [Compound 23, 4-[(10H-Phenothiazin-10-yl)methyl]-N-methoxy-N-methylbenzamide] | – | – | activity on HDAC1 (in words) (human recombinant HDAC1): completely inactive; activity on HDAC6 (in words) (human recombinant HDAC6): completely inactive
9 | O=C(NO)c1ccc(CN2N=CC=C3Sc4ccccc4N=C32)cc1 [Compound 10p, 4-[(1H-Benzo[b]pyridazino[3,4-e][1,4]thiazin-1-yl)methyl]-N-hydroxybenzamide] | 0.44 (kcal/mol)/non-H-Atom | 0.75 ± 0.04 µM | –
10 | COc1ccc2c(c1)N(Cc1ccc(C(=O)NO)cc1)c1ccccc1S2 [Compound 7g, N-Hydroxy-4-[(2-methoxy-10H-phenothiazin-10-yl)methyl]benzamide] | 0.42 (kcal/mol)/non-H-Atom | – | –
11 | CN1CCC2=C(C1)N(Cc1ccc(C(=O)NO)cc1)c1ccccc1S2 [Compound 14j, N-Hydroxy-4-[(2-methyl-1,2,3,4-tetrahydro-10H-benzo[b]pyrido[3,4-e][1,4]thiazin-10-yl)methyl]benzamide] | 0.41 (kcal/mol)/non-H-Atom | – | –
12 | Cc1nc2c(s1)Sc1ccccc1N2Cc1ccc(C(=O)NO)cc1 [Compound 7o, N-Hydroxy-4-[(2-methyl-4H-benzo[b]thiazolo[4,5-e][1,4]thiazin-4-yl)methyl]benzamide] | 0.42 (kcal/mol)/non-H-Atom | 5.05 ± 0.75 µM | SF 1/6, selectivity factor for HDAC6 over HDAC1 (human recombinant HDAC6): 136
13 | O=C(NO)c1ccc(CC(=O)N(CCO)c2ccccc2)cc1 [HPOB, N-hydroxy-4-(2-[(2-hydroxyethyl)(phenyl)amino]-2-oxoethyl)benzamide] | – | – | selectivity over HDAC1 (hHDAC6): ~ 50 fold
14 | O=C(NO)c1ccc(CN2c3ccncc3Sc3ccncc32)cc1 [Compound 7m, 4-[(10H-Dipyrido[3,4-b:3’,4’-e][1,4]thiazin-10-yl)methyl]-N-hydroxybenzamide] | 0.46 (kcal/mol)/non-H-Atom | 0.79 ± 0.14 µM | –
15 | Cn1c(=O)c2c(ncn2C)n(C)c1=O [Caffeine, reference compound] | – | – | half-life at 2 μM [1]: > 40 min
16 | O=C(NO)c1ccc(CN2N=C(Cl)C=C3Sc4ccccc4N=C32)cc1 [Compound 10q, 4-[(3-Chloro-1H-benzo[b]pyridazino[3,4-e][1,4]thiazin-1-yl)methyl]-N-hydroxybenzamide] | 0.38 (kcal/mol)/non-H-Atom | 4.58 ± 0.73 µM | –
17 | O=C(NO)c1ccc(CN2c3ccccc3Sc3ccncc32)cc1 [Compound 7j, 4-[(10H-Benzo[b]pyrido[3,4-e][1,4]thiazin-10-yl)methyl]-N-hydroxybenzamide] | 0.46 (kcal/mol)/non-H-Atom | 1.25 ± 0.01 µM | SF 1/6, selectivity factor for HDAC6 over HDAC1 (human recombinant HDAC6): 179
18 | O=C(NO)c1ccc(CN2c3ccccc3Sc3ccc(Cl)cc32)cc1 [Compound 7f, 4-[(2-Chloro-10H-phenothiazin-10-yl)methyl]-N-hydroxybenzamide] | 0.43 (kcal/mol)/non-H-Atom | – | –
19 | O=C(NO)c1ccc(CCN2c3ccccc3Sc3ccccc32)cc1 [Compound 22, 4-[2-(10H-Phenothiazin-10-yl)ethyl]-N-hydroxybenzamide] | 0.37 (kcal/mol)/non-H-Atom | 11.7 ± 2.61 µM | SF 1/6, selectivity factor for HDAC6 over HDAC1 (human recombinant HDAC6): 86
20 | O=C(NO)c1ccc(CN2c3cccnc3Sc3cccnc32)cc1 [Compound 7l, 4-[(10H-Dipyrido[2,3-b:2’,3’-e][1,4]thiazin-10-yl)methyl]-N-hydroxybenzamide] | 0.45 (kcal/mol)/non-H-Atom | 3.39 ± 0.23 µM | SF 1/6, selectivity factor for HDAC6 over HDAC1 (human recombinant HDAC6): 242
21 | O=C(NO)c1ccc(CN2c3ccccc3Sc3cccnc32)cc1 [Compound 7i, 4-[(10H-Benzo[b]pyrido[2,3-e][1,4]thiazin-10-yl)methyl]-N-hydroxybenzamide] | – | – | Viability of HepaRG cells (HepaRG cells): not affected; effect on proliferation (in words) (MDA-MB-231 cells): inhibited proliferation; human liver microsomal stability (in words) [1]: metabolically quite stable; half-life at 2 μM [1]: > 40 min; effect on proliferation (in words) (T24 cells): inhibited proliferation; effect on proliferation (in words) (HUH7 cells): inhibited proliferation
22 | CN1CCc2c(n(Cc3ccc(C(=O)NO)cc3)c3ccccc23)C1 [Regioisomer of Tubastatin] | – | – | SF 1/6, selectivity factor for HDAC6 over HDAC1 (hHDAC6; from published IC50 values): 3700
23 | O=C(CCCCCCNC(=O)c1cnc(N(c2ccccc2)c2ccccc2)nc1)NO [Ricolinostat] | – | – | selectivity for HDAC6 relative to class I HDACs (hHDAC6; introduction, literature statement): at least 10 fold
24 | O=C(NO)c1ccc(CN2c3ccccc3Sc3ccccc32)cc1 [Compound 1a, 4-[(10H-Phenothiazin-10-yl)methyl]-N-hydroxybenzamide] | – | – | Viability of HepaRG cells (HepaRG cells): not affected; human liver microsomal stability (in words) [1]: moderate stability; compound remaining ([1]; human liver microsomes, after 40 min incubation): about 77%; half-life at 2 μM [1]: > 40 min
25 | CCCCN(Cc1ccc(C(=O)NO)cc1)C(=O)Nc1ccccc1 [Nexturastat A] | – | – | selectivity over HDAC1 (hHDAC6): ~ 600 fold
26 | O=C(NO)c1ccc(CN2c3ccccc3Sc3ccnnc32)cc1 [Compound 7p, 4-[(10H-Benzo[b]pyridazino[3,4-e][1,4]thiazin-10-yl)methyl]-N-hydroxybenzamide] | 0.45 (kcal/mol)/non-H-Atom | 1.06 ± 0.08 µM | –
27 | O=C(O)c1ccc(CN2c3ccccc3Sc3ccccc32)cc1 [Compound 5a, 4-[(10H-Phenothiazin-10-yl)methyl]benzoic acid] | – | – | activity on HDAC6 (in words) (human recombinant HDAC6): inactive; HDAC6 inhibition (human recombinant HDAC6): did not show noteworthy HDAC6 inhibition
28 | CCSc1ccc2c(c1)N(Cc1ccc(C(=O)NO)cc1)c1ccccc1S2 [Compound 7h, 4-{[2-(Ethylthio)-10H-phenothiazin-10-yl]methyl}-N-hydroxybenzamide] | 0.38 (kcal/mol)/non-H-Atom | – | –
